“Also recorded” adds a separate entry of the source. Structures can show the parent of a compound that is named as a salt. Where two headings read alike, the source gives them in different places.
What was measured:
[1] = tested on: advanced HCC with MET overexpression; assay: Phase 2 randomised efficacy, tepotinib vs sorafenib (TTP, PFS, OS, response; RECIST v1.1); assay type: in vivo, human; conditions: Phase 2, mITT
From the text: (§1) Patients in both phases continued to receive allocated therapy until disease progression, intolerable toxicity or withdrawal of consent.
(§2) In Phase 2, the primary endpoint was independent review committee (IRC)-assessed time to progression (TTP) per Response Evaluation Criteria in Solid Tumors (RECIST) v1.1. Secondary endpoints included investigator-assessed TTP, IRC- and investigator-assessed progression-free survival (PFS), objective response rate (ORR), disease control rate, OS and safety. In both phases, tumour assessments were performed according to RECIST v1.1 based on scans taken at the end of every second cycle until Cycle 13, and every four cycles thereafter.
(§3) In Phase 2, analyses were conducted according to randomised treatment assignment. […] In total, 100 TTP events were required to ensure 80% power (with a two-sided significance level of 10%) for rejecting the null hypothesis of equal treatment effect between treatment arms, assuming a true hazard ratio (HR) of 0.6. […] For the primary and secondary time-to-event endpoints, treatment groups were compared in the mITT population, applying a two-sided log-rank test, stratified by BCLC stage (α = 10%).

[2] = tested on: SACT-naive Asian patients with aHCC with MET overexpression; assay: Phase 2 safety (adverse events, NCI-CTCAE v4.0); conditions: for treatment-related AEs: ALT increased / treatment-related AEs: AST increased / treatment-related AEs: Alopecia / treatment-related AEs: Blood bilirubin increased / treatment-related AEs: Blood creatinine increased / treatment-related AEs: Diarrhoea / treatment-related AEs: Fatigue / treatment-related AEs: Hypertension / treatment-related AEs: Hypoalbuminaemia / treatment-related AEs: Oedema peripheral / treatment-related AEs: Overall / treatment-related AEs: PPES: Phase 2, safety analysis set
Procedure: as §1
DLTs are defined in Supplementary Table 3.
as §3

advanced HCC [3] = conditions: Phase 3 SHARP sorafenib trial; cited from earlier work
advanced HCC [4] = conditions: Phase 3 Asia-Pacific sorafenib trial; cited from earlier work
advanced HCC [5] = assay: Phase 1b tumour response per RECIST v1.1; assay type: in vivo, human; conditions: for duration of partial response: one patient
Procedure: as §2

[6] = Phase 1b pharmacokinetics, Cycle 1 Day 15; assay type: in vivo, human; conditions: for AUC / Cmax: human, in vivo, oral, Cycle 1 Day 15, geometric mean
Procedure: Secondary endpoints in Phase 1b included efficacy measures and pharmacokinetic parameters, such as Cmax and area under the concentration–time curve over the dosing interval at steady state (AUCτ,ss), which were evaluated at Cycle 1, Day 15.

[7] = patients with moderate hepatic impairment (Child–Pugh B); cited from earlier work
[8] = tested on: Asian patients with advanced HCC; assay: Phase 1b dose escalation: DLTs and adverse events
Procedure: This was an open-label, multicentre, integrated, Phase 1b/2 trial conducted in Asian patients with advanced HCC (NCT01988493). […] Phase 1b was conducted at eight sites and Phase 2 at 43 sites in mainland China, South Korea and Taiwan.
Once three patients had completed one cycle at 500 mg, nine further patients were to be enrolled at this dose level to confirm the RP2D. […] The Safety Monitoring Committee (SMC) could also recommend enrolment of additional patients at or above the RP2D.
In Phase 1b, the primary endpoint was the incidence of investigator-assessed DLTs occurring in Cycle 1, as well as the incidence of other AEs (graded according to the National Cancer Institute Common Terminology and Criteria for Adverse Events, v4.0). […] Secondary endpoints in Phase 1b included efficacy measures and pharmacokinetic parameters, such as Cmax and area under the concentration–time curve over the dosing interval at steady state (AUCτ,ss), which were evaluated at Cycle 1, Day 15.

MET = tested on: MET; parameters: method as in PMID 28862760; conditions: cited from earlier work
HCC with MET alterations = tested on: HCC with MET alterations; parameters: method as in PMID 31853265; conditions: 30 patients with HCC with MET alterations, first-line; cited from earlier work
[9] = Phase 1b, 500 mg dose, comparator ref 13
[10] = Phase 1b, across all dose cohorts

## CNC(=O)c1cc(Oc2ccc(NC(=O)Nc3ccc(Cl)c(C(F)(F)F)c3)cc2)ccn1 [Sorafenib, sorafenib]
[1]
  ORR by IRC: 0%
  median OS: 8.6 months
  median PFS assessed by IRC: 1.4 months
  median investigator-assessed PFS: 2.8 months
  median investigator-assessed TTP: 2.8 months
[1]; IRC
  Best overall response: Complete response: 0 (0.0)
  Best overall response: Non-complete response/non-partial response: 0 (0.0)
  Best overall response: Partial response: 0 (0.0)
  Best overall response: Progressive disease: 25 (67.6)
  Best overall response: Stable disease: 8 (21.6)
  Objective response rate: 0 (0.0) n (%)
  disease control: 21.6%
  disease control rate: 8 (21.6) n (%)
[1]; tepotinib 500 mg QD, sorafenib 400 mg twice daily
  median IRC-assessed time to progression (TTP): 1.4 months
[2]; Phase 2
  aspartate transaminase increase, any cause: 36.4%
  deaths deemed treatment-related: neither were deemed treatment-related
  decreased appetite, any cause: 40.9%
  diarrhoea, any cause: 38.6%
  palmar–plantar erythrodysesthesia, any cause: 61.4%
  patients who died due to AEs while on treatment: Two
  patients with AEs of any cause: 97.7%
  patients with Grade ≥3 AEs of any cause: 70.5%
  permanent treatment discontinuation due to AEs of any cause: 13.6%
[2]; Phase 2, any grade
  treatment-related diarrhoea: 31.8%
  treatment-related palmar–plantar erythrodysesthesia: 61.4%
[2]; Any grade
  treatment-related AEs: ALT increased: 7 (15.9) n (%)
  treatment-related AEs: AST increased: 10 (22.7) n (%)
  treatment-related AEs: Alopecia: 10 (22.7) n (%)
  treatment-related AEs: Blood bilirubin increased: 8 (18.2) n (%)
  treatment-related AEs: Blood creatinine increased: 0 (0.0) n (%)
  treatment-related AEs: Diarrhoea: 14 (31.8) n (%)
  treatment-related AEs: Fatigue: 11 (25.0) n (%)
  treatment-related AEs: Hypertension: 11 (25.0) n (%)
  treatment-related AEs: Hypoalbuminaemia: 2 (4.5) n (%)
  treatment-related AEs: Oedema peripheral: 0 (0.0) n (%)
  treatment-related AEs: Overall: 43 (97.7) n (%)
  treatment-related AEs: PPES: 27 (61.4) n (%)
[2]; Grade ≥ 3
  treatment-related AEs: ALT increased: 0 (0.0) n (%)
  treatment-related AEs: AST increased: 3 (6.8) n (%)
  treatment-related AEs: Alopecia: 0 (0.0) n (%)
  treatment-related AEs: Blood bilirubin increased: 2 (4.5) n (%)
  treatment-related AEs: Blood creatinine increased: 0 (0.0) n (%)
  treatment-related AEs: Diarrhoea: 3 (6.8) n (%)
  treatment-related AEs: Fatigue: 0 (0.0) n (%)
  treatment-related AEs: Hypertension: 6 (13.6) n (%)
  treatment-related AEs: Hypoalbuminaemia: 0 (0.0) n (%)
  treatment-related AEs: Oedema peripheral: 0 (0.0) n (%)
  treatment-related AEs: Overall: 20 (45.5) n (%)
  treatment-related AEs: PPES: 3 (6.8) n (%)
[2]; Phase 2, text
  treatment-related AEs, Grade ≥3, overall: 45.5%
  treatment-related AEs, any grade, overall: 97.7%
Advanced HCC [3]
  median TTP: 5.5 months
Advanced HCC [4]
  median TTP: 2.8 months

## CN1CCC(COc2cnc(-c3cccc(Cn4nc(-c5cccc(C#N)c5)ccc4=O)c3)nc2)CC1 [Tepotinib, tepotinib hydrochloride hydrate]
Advanced HCC [5]; Phase 1b, 300 mg cohort
  best overall response of progressive disease: 85.7%
  best overall response of stable disease: 14.3%
  disease control rate: 14.3%
Advanced HCC [5]; Phase 1b, 500 mg cohort
  best overall response of progressive disease: 35.7%
  best overall response of stable disease: 42.9%
  objective response rate (ORR): 7.1%
  duration of partial response: 19 months
Advanced HCC [5]; Phase 1b, 1,000 mg cohort
  best overall response of progressive disease: 50.0%
  best overall response of stable disease: 33.3%
  objective response rate (ORR): 16.7%
  duration of partial response: 4.4 months
[6]; [9]
  AUCτ as percentage of that observed in the first-in-human trial: 61%
  Cmax as percentage of that observed in the first-in-human trial: 63%
[6]; 1000 mg, Phase 1b, 1,000 mg QD
  AUC: 28600 ng·h/mL
  Cmax: 1370 ng/mL
[6]; Phase 1b, 300 mg QD
  AUC: 11800 ng·h/mL
  Cmax: 585 ng/mL
[6]; Phase 1b, 500 mg QD
  AUC: 16700 ng·h/mL
  Cmax: 815 ng/mL
[7]
  lower AUC from time 0 to infinity versus control subjects without hepatic impairment: 12%
  lower Cmax versus control subjects without hepatic impairment: 29%
[8]; Phase 1b, 300, 500 or 1,000 mg QD, Cycle 1
  dose-limiting toxicities (DLTs): no DLTs occurred; also recorded: No DLTs were observed; also recorded: no DLTs were reported
[8]; [10]
  treatment-related AEs, Grade ≥3: 33.3%
  treatment-related AEs, any grade: 81.5%
[8]; Phase 1b, n = 27
  patients with AEs of any cause: All patients

## COc1cc2nccc(Oc3ccc(NC(=O)C4(C(=O)Nc5ccc(F)cc5)CC4)cc3)c2cc1OC [cabozantinib]
MET
  in vitro IC50 for MET inhibition: low nanomolar range

## CNC(=O)c1ccc(-c2cnc3ncc(Cc4ccc5ncccc5c4)n3n2)cc1F [capmatinib]
HCC with MET alterations
  ORR: 10%

## O=C1NC(=O)[C@@H](c2cn3c4c(cccc24)CCC3)[C@@H]1c1c[nH]c2ccccc12 [tivantinib]
MET; relative to tepotinib, cabozantinib and capmatinib
  affinity for the MET receptor: lower affinity for the receptor
